{"source": "patent US9393219B2", "about": "“Monophenols and benzenediols sensitization of immune system against haptenized melanoma antigens” (ACADEMISCH ZIEKENHUIS BIJ DE UNIVERSITEIT VAN AMSTERDAM, priority 2005, dated 2016)", "key": {"melanoma": {"system": "melanoma", "conditions": "cited from earlier work; for toxicity of intra arterial infusion: intra arterial infusions in the lower limbs, high doses; for efficacy as chemotherapeutic in melanoma: metastatic/disseminated melanoma, intra arterial infusion of high doses"}, "skin": {"system": "skin", "conditions": "cases in workers of polymer or leather industries; cited from earlier work"}, "[1]": {"system": "pigmented skin / depigmented skin", "test": "in vivo inflammatory response of pigmented and depigmented skin", "parameters": "species or system human", "excerpt": "(§1) No reaction occurs in depigmented skin. This entails that the inflammatory reaction is directed towards something, what is only present in melanocytes, e.g. tyrosinase, TRP1 and/or TRP2. However, auto-antibodies to tyrosinase, TRP1 and TRP2 have been reported to occur at low frequencies, or not at all, in vitiligo patients (37,38,39,40,41)."}, "[2]": {"system": "skin of vitiligo patients", "test": "histology of skin of vitiligo patients undergoing depigmentation therapy", "type": "in vivo, human", "excerpt": "as §1"}, "[3]": {"system": "melanocytes and keratinocytes", "test": "in vitro toxic effects on melanocytes and keratinocytes", "type": "cell-based", "excerpt": "as §1"}, "metastatic melanoma": {"system": "metastatic melanoma", "conditions": "immunotherapy; cited from earlier work"}}, "note": "Read-outs that look alike come from different tables or passages of the source.", "data": [{"molecule": "COc1ccc(O)cc1", "note": "[4-HA, 4-hydroxyanisole]", "values": [{"measurement": "toxicity of intra arterial infusion", "setting": "melanoma", "value": "serious renal and hepatic toxicity"}, {"measurement": "toxicity of intra arterial infusion", "setting": "melanoma; listed as 4-Hydroxyanisole", "value": "severe toxic events"}, {"measurement": "efficacy as chemotherapeutic in melanoma", "setting": "melanoma", "value": "without success"}, {"measurement": "efficacy as chemotherapeutic in melanoma", "setting": "melanoma; listed as 4-Hydroxyanisole", "value": "not effective"}]}, {"molecule": "CC(C)(C)c1ccc(O)c(O)c1", "note": "[TBC, 4-tert-butylcatechol]", "values": [{"measurement": "depigmentation on exposure of the skin", "setting": "skin", "value": "causes leukoderma and can induce vitiligo-like depigmentation"}]}, {"molecule": "Oc1ccc(OCc2ccccc2)cc1", "note": "[Monobenzone, p-(benzyloxy)phenol]", "values": [{"measurement": "depigmentation on exposure of the skin", "setting": "skin", "value": "causes leukoderma and can induce vitiligo-like depigmentation"}, {"measurement": "inflammatory reaction", "setting": "[1]; depigmented skin", "value": "No reaction"}, {"measurement": "inflammatory response with erythema, edema and scaliness", "setting": "[1]; pigmented skin", "value": "only seen in the pigmented skin"}, {"measurement": "histology of skin: infiltrate", "setting": "[2]", "value": "dense infiltrate consisting of mainly CD8^+ cells and macrophages"}, {"measurement": "granulocytes in the skin infiltrate", "setting": "[2]; granulocytes would indicate a toxic (orthoergic) reaction", "value": "no granulocytes"}, {"measurement": "sensitivity of melanocytes and keratinocytes to the toxic effects", "setting": "[3]", "value": "equally sensitive"}]}, {"molecule": "interferon (IFNγ): interferon (IFNγ) used as immunotherapy for metastatic melanoma (protein, UniProt P01579 24-161, looked up) Interferon gamma: QDPYVKEAENLKKYFNAGHSDVADNGTLFLGILKNWKEESDRKIMQSQIVSFYFKLFKNFKDDQSIQKSVETIKEDMNVKFFNSNKKKRDDFEKLTNYSVTDLNVQRKAIHELIQVMAELSPAAKTGKRKRSQMLFRG", "values": [{"measurement": "response rate", "setting": "metastatic melanoma", "value": "approximately 15%"}]}]}
